{"source": "patent US20060111305A1", "about": "“Metabolites of certain [1,4]diazepino[6,7,1-ij]quinoline derivatives and methods of preparation and use thereof” (Wyeth, priority 2004, published 2006)", "key": {"[1]": {"details": "dogs; cited from earlier work"}, "[2]": {"test": "Incubation of [14C]DCDQ in rat fecal homogenate (stability)", "format": "in vitro ADME", "details": "37° C. for 24 hours", "protocol": "Fecal elimination accounted for 21.1±2.1% of the dosed radioactivity recovered in the first 24 hours post-dosing for male rats. Extraction efficiency for the 8-24 hour fecal samples was 64.3%, while an average of 89.5% of the radioactivity was extracted from incubations of [^14C]DCDQ in control fecal homogenate. […] Metabolite profiles were not obtained from the 0-8 hour fecal samples because of low radioactivity (less than 0.1% of dosed radioactivity)."}, "[3]": {"test": "Rat blood and plasma radioactivity concentrations after single oral 5 mg/kg [14C]DCDQ", "format": "in vivo, Sprague-Dawley rats", "details": "for Blood concentration of radioactivity, individuals / Plasma concentration of radioactivity, individuals: 5 mg/kg", "protocol": "Dose preparation, animal dosing, and specimen collection were performed at Wyeth Research, Collegeville, Pa. The dose vehicle contained 2% (w/w) Tween 80 and 0.5% methylcellulose in water. […] Male rats weighing from 318 to 345 grams and female rats weighing from 227 to 255 grams at the time of dosing were purchased from Charles River Laboratories, Wilmington, Mass. Non-fasted rats were given a single 5 mg/kg (˜300 μCi/kg) dose of DCDQ at a volume of 2.5 mL/kg via intragastric gavage. Animals were provided Purina rat chow and water ad libitum, and were kept individually in metabolism cages. Male rats were sacrificed at 2, 4, 8 and 24 hour after dose administration. Female rats were sacrificed at 2 and 8 hour after dose administration. At sacrifice, blood samples were collected by cardiac puncture into tubes containing EDTA as the anticoagulant and placing them on ice. Aliquots of 50 μL were removed for combustion and determination of radioactivity content. Plasma was immediately obtained from the remaining blood by centrifugation at 4° C. Brains were excised after perfusion with 50 mL of chilled sterile saline. Urine samples were collected on dry ice at intervals of 0-8 and 8-24 hour post-dosing. Feces were collected at intervals of 0-8 and 8-24 hr post-dosing at room temperature and were homogenized as described previously. The biological specimens and aliquots of the dosing solution at pre- and post-dose were stored at approximately −70° C. until analyzed. Plasma (20 μL) and urine (50 μL) aliquots were analyzed for radioactivity concentrations. Radioactivity determinations of dose, plasma and urine were made with a Tri-Carb Model 3100 TR/LL liquid scintillation counter (LSC) (Perkin Elmer) using 10 mL of Ultima Gold as the scintillation fluid. […] Blood aliquots (50 μL), brain homogenates (0.1 gram) and fecal homogenates (0.2 gram) were placed on Combusto-cones with Combusto-pads and combusted. A model 307 Tri-Carb Sample Oxidizer, equipped with an Oximate-80 Robotic Automatic Sampler (Perkin Elmer), was used for combustion. The liberated ^14CO2 was trapped with Carbo-Sorb E carbon dioxide absorber, mixed with PermaFluor® E+ liquid scintillation cocktail, and counted in a Tri-Carb Model 3100 TR/LL liquid scintillation counter (Perkin Elmer). The oxidation efficiency of the oxidizer was 98.2%."}, "[4]": {"test": "Dog blood and plasma radioactivity concentrations after single 15 mg/kg oral enteric-coated capsule of [14C]DCDQ", "format": "in vivo, beagle dogs", "details": "15 mg/kg oral capsule; for Blood concentration of radioactivity, individual dogs 1-4 / Plasma concentration of radioactivity, individual dogs 1-4: 15 mg/kg", "protocol": "About 11 mg of [^14C]DCDQ hydrochloride and 940 mg of non-labeled DCDQ hydrochloride were dissolved in methanol and then evaporated under a nitrogen stream to dryness. Capsules (#2) were filled with accurate amounts (126.7-138.1 mg) of the mixed drug substance according to animal weights. The filled gelatin capsules were then enteric-coated manually. Four male beagle dogs, weighing from 7.6 to 9.8 kg at the time of dosing, were from an in-house colony. Each dog was given one enteric-coated capsule containing [^14C]DCDQ as the hydrochloride salt. Animals were fed two hours prior to dosing and provided Purina dog chow and water ad libitum, and were housed individually in metabolic cages. Blood samples were collected from the jugular vein at 2, 4, 8, 24 and 48 hour after dose administration into tubes containing potassium EDTA as the anticoagulant and then placed on ice. Aliquots of 50 μL were removed for combustion and determination of radioactivity content. Plasma was immediately obtained from the remaining blood by centrifugation at 4° C. Urine samples were collected into tubes on dry ice at intervals of 0-8, 8-24 and 24-48 hour post-dose. Fecal samples were collected at intervals of 0-8, 8-24 and 24-48 hour post-dose at room temperature, and were homogenized. The biological specimens were stored at approximately −70° C. until analysis. Aliquots of 50 μL of plasma and 100-200 μL of urine were analyzed for radioactivity concentrations. Radioactivity determinations of dose, plasma, and urine were made with a Tri-Carb Model 3100 TR/LL LSC using 5-10 mL of Ultima Gold as the scintillation fluid. Feces were weighed and homogenized in water at a volume-to-weight ratio of about 5:1. Aliquots of blood (200 μL) and fecal homogenates (0.25-0.53 gram) were placed on Combusto-cones with Combusto-pads and combusted. A model 307 Tri-Carb sample oxidizer, equipped with an Oximate-80 robotic automatic sampler (Perkin Elmer), was used for combustion of blood and fecal samples. The liberated ^14CO2 was trapped with Carbo-Sorb E carbon dioxide absorber, mixed with PermaFluor® E+ liquid scintillation cocktail, and counted on a Tri-Carb Model 3100 TR/LL liquid scintillation counter (Perkin Elmer). The efficiency of combustion was 98.9%."}}, "note": "“And” between values parts separate entries of the source, which are not always exact repeats. Identical values can stand only once."}
{"smiles": "c1cc2c3c(c1)[C@H]1CCC[C@H]1CN3CCNC2", "note": "[DCDQ, (9aR,12aS)-4,5,6,7,9,9a,10,11,12,12a-decahydro-cyclopenta[c][1,4]diazepine[6,7,1-ij]quinoline, reference compound]", "values": [{"measurement": "oral bioavailability", "setting": "[1]", "value": "approximately 25.4%"}]}
{"smiles": "c1cc2c3c(c1)[C@H]1CCC[C@H]1CN3CCNC2", "note": "[[^14C]DCDQ]", "values": [{"measurement": "degradation in fecal homogenate", "setting": "[2]", "value": "no detectable degradation"}, {"measurement": "Blood concentration of radioactivity, Mean ± SD", "setting": "[3]; female rats, 2 hr", "value": "697 ± 219", "unit": "ng equivalents/mL"}, {"measurement": "Plasma concentration of radioactivity, Mean ± SD", "setting": "[3]; female rats, 2 hr", "value": "658 ± 189", "unit": "ng equivalents/mL"}, {"measurement": "Blood concentration of radioactivity, individuals", "setting": "[3]; female rats, 2 hr", "value": "661 ng equivalents/mL and 932 ng equivalents/mL and 499 ng equivalents/mL"}, {"measurement": "Plasma concentration of radioactivity, individuals", "setting": "[3]; female rats, 2 hr", "value": "635 ng equivalents/mL and 857 ng equivalents/mL and 481 ng equivalents/mL"}, {"measurement": "Blood concentration of radioactivity, Mean ± SD", "setting": "[3]; female rats, 8 hr", "value": "307 ± 68.4", "unit": "ng equivalents/mL"}, {"measurement": "Plasma concentration of radioactivity, Mean ± SD", "setting": "[3]; female rats, 8 hr", "value": "338 ± 60.7", "unit": "ng equivalents/mL"}, {"measurement": "Blood concentration of radioactivity, individuals", "setting": "[3]; female rats, 8 hr", "value": "413 ng equivalents/mL and 292 ng equivalents/mL and 406 ng equivalents/mL"}, {"measurement": "Plasma concentration of radioactivity, individuals", "setting": "[3]; female rats, 8 hr", "value": "362 ng equivalents/mL and 269 ng equivalents/mL and 383 ng equivalents/mL"}, {"measurement": "Blood concentration of radioactivity, Mean ± SD", "setting": "[3]; male rats, 2 hr", "value": "706 ± 158", "unit": "ng equivalents/mL"}, {"measurement": "Plasma concentration of radioactivity, Mean ± SD", "setting": "[3]; male rats, 2 hr", "value": "632 ± 144", "unit": "ng equivalents/mL"}, {"measurement": "Blood concentration of radioactivity, individuals", "setting": "[3]; male rats, 2 hr", "value": "606 ng equivalents/mL and 624 ng equivalents/mL and 888 ng equivalents/mL"}, {"measurement": "Plasma concentration of radioactivity, individuals", "setting": "[3]; male rats, 2 hr", "value": "567 ng equivalents/mL and 531 ng equivalents/mL and 797 ng equivalents/mL"}, {"measurement": "Blood concentration of radioactivity, Mean ± SD", "setting": "[3]; male rats, 4 hr", "value": "704 ± 18.7", "unit": "ng equivalents/mL"}, {"measurement": "Plasma concentration of radioactivity, Mean ± SD", "setting": "[3]; male rats, 4 hr", "value": "659 ± 16.5", "unit": "ng equivalents/mL"}, {"measurement": "Blood concentration of radioactivity, individuals", "setting": "[3]; male rats, 4 hr", "value": "698 ng equivalents/mL and 725 ng equivalents/mL and 689 ng equivalents/mL"}, {"measurement": "Plasma concentration of radioactivity, individuals", "setting": "[3]; male rats, 4 hr", "value": "678 ng equivalents/mL and 652 ng equivalents/mL and 647 ng equivalents/mL"}, {"measurement": "Blood concentration of radioactivity, Mean ± SD", "setting": "[3]; male rats, 8 hr", "value": "525 ± 45.3", "unit": "ng equivalents/mL"}, {"measurement": "Plasma concentration of radioactivity, Mean ± SD", "setting": "[3]; male rats, 8 hr", "value": "465 ± 43.1", "unit": "ng equivalents/mL"}, {"measurement": "Blood concentration of radioactivity, individuals", "setting": "[3]; male rats, 8 hr", "value": "538 ng equivalents/mL and 475 ng equivalents/mL and 562 ng equivalents/mL"}, {"measurement": "Plasma concentration of radioactivity, individuals", "setting": "[3]; male rats, 8 hr", "value": "487 ng equivalents/mL and 415 ng equivalents/mL and 492 ng equivalents/mL"}, {"measurement": "Blood concentration of radioactivity, Mean ± SD", "setting": "[3]; male rats, 24 hr", "value": "68.0 ± 10.0", "unit": "ng equivalents/mL"}, {"measurement": "Plasma concentration of radioactivity, Mean ± SD", "setting": "[3]; male rats, 24 hr", "value": "46.9 ± 8.30", "unit": "ng equivalents/mL"}, {"measurement": "Blood concentration of radioactivity, individuals", "setting": "[3]; male rats, 24 hr", "value": "66.5 ng equivalents/mL and 58.9 ng equivalents/mL and 78.7 ng equivalents/mL"}, {"measurement": "Plasma concentration of radioactivity, individuals", "setting": "[3]; male rats, 24 hr", "value": "50.5 ng equivalents/mL and 37.4 ng equivalents/mL and 52.8 ng equivalents/mL"}, {"measurement": "Blood concentration of radioactivity, Mean ± SD", "setting": "[4]; 2 hr", "value": "262 ± 391", "unit": "ng equivalents/mL"}, {"measurement": "Plasma concentration of radioactivity, Mean ± SD", "setting": "[4]; 2 hr", "value": "422 ± 573", "unit": "ng equivalents/mL"}, {"measurement": "Blood concentration of radioactivity, individual dogs 1-4", "setting": "[4]; 2 hr", "value": "161 ng equivalents/mL and 840 ng equivalents/mL and 48.6 ng equivalents/mL and 0.00 ng equivalents/mL"}, {"measurement": "Plasma concentration of radioactivity, individual dogs 1-4", "setting": "[4]; 2 hr", "value": "360 ng equivalents/mL and 1250 ng equivalents/mL and 74.4 ng equivalents/mL and 4.13 ng equivalents/mL"}, {"measurement": "Blood concentration of radioactivity, Mean ± SD", "setting": "[4]; 4 hr", "value": "372 ± 505", "unit": "ng equivalents/mL"}, {"measurement": "Plasma concentration of radioactivity, Mean ± SD", "setting": "[4]; 4 hr", "value": "564 ± 748", "unit": "ng equivalents/mL"}, {"measurement": "Blood concentration of radioactivity, individual dogs 1-4", "setting": "[4]; 4 hr", "value": "319 ng equivalents/mL and 1100 ng equivalents/mL and 66.7 ng equivalents/mL and 0.90 ng equivalents/mL"}, {"measurement": "Plasma concentration of radioactivity, individual dogs 1-4", "setting": "[4]; 4 hr", "value": "500 ng equivalents/mL and 1640 ng equivalents/mL and 112 ng equivalents/mL and 4.13 ng equivalents/mL"}, {"measurement": "Blood concentration of radioactivity, Mean ± SD", "setting": "[4]; 8 hr", "value": "347 ± 378", "unit": "ng equivalents/mL"}, {"measurement": "Plasma concentration of radioactivity, Mean ± SD", "setting": "[4]; 8 hr", "value": "528 ± 566", "unit": "ng equivalents/mL"}, {"measurement": "Blood concentration of radioactivity, individual dogs 1-4", "setting": "[4]; 8 hr", "value": "331 ng equivalents/mL and 878 ng equivalents/mL and 176 ng equivalents/mL and 5.41 ng equivalents/mL"}, {"measurement": "Plasma concentration of radioactivity, individual dogs 1-4", "setting": "[4]; 8 hr", "value": "541 ng equivalents/mL and 1310 ng equivalents/mL and 256 ng equivalents/mL and 4.13 ng equivalents/mL"}, {"measurement": "Blood concentration of radioactivity, Mean ± SD", "setting": "[4]; 24 hr", "value": "920 ± 341", "unit": "ng equivalents/mL"}, {"measurement": "Plasma concentration of radioactivity, Mean ± SD", "setting": "[4]; 24 hr", "value": "1340 ± 508", "unit": "ng equivalents/mL"}, {"measurement": "Blood concentration of radioactivity, individual dogs 1-4", "setting": "[4]; 24 hr", "value": "980 ng equivalents/mL and 782 ng equivalents/mL and 1360 ng equivalents/mL and 556 ng equivalents/mL"}, {"measurement": "Plasma concentration of radioactivity, individual dogs 1-4", "setting": "[4]; 24 hr", "value": "1530 ng equivalents/mL and 1110 ng equivalents/mL and 1940 ng equivalents/mL and 769 ng equivalents/mL"}, {"measurement": "Blood concentration of radioactivity, Mean ± SD", "setting": "[4]; 48 hr", "value": "343 ± 79.9", "unit": "ng equivalents/mL"}, {"measurement": "Plasma concentration of radioactivity, Mean ± SD", "setting": "[4]; 48 hr", "value": "507 ± 135", "unit": "ng equivalents/mL"}, {"measurement": "Blood concentration of radioactivity, individual dogs 1-4", "setting": "[4]; 48 hr", "value": "333 ng equivalents/mL and 434 ng equivalents/mL and 364 ng equivalents/mL and 241 ng equivalents/mL"}, {"measurement": "Plasma concentration of radioactivity, individual dogs 1-4", "setting": "[4]; 48 hr", "value": "504 ng equivalents/mL and 669 ng equivalents/mL and 517 ng equivalents/mL and 339 ng equivalents/mL"}]}
